{
  "source": "BindingDB's records for patent US20230414632",
  "about": "(Centre National De La Recherche Scientifique, 2023)",
  "data": [
    {"target": "Lysine--tRNA ligase (Homo sapiens, UniProt Q15046)", "sequence (Q15046 whole entry)": "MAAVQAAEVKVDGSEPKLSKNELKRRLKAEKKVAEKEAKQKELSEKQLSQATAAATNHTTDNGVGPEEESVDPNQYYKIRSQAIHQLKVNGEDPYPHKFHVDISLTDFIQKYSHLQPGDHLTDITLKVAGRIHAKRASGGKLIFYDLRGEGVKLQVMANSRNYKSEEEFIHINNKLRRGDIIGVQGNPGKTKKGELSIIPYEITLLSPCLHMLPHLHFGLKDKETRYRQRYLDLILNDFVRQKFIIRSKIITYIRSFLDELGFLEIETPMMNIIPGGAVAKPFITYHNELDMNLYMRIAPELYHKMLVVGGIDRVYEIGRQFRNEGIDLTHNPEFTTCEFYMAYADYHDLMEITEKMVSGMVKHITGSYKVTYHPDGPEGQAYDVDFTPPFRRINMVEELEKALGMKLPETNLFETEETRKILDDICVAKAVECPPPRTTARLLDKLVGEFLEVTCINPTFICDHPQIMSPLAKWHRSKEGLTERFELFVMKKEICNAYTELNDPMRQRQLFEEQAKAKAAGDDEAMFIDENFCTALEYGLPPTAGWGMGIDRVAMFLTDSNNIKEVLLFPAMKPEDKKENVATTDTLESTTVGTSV", "test": "Homogeneous Time-Resolved Fluorescence Assay", "procedure": "Homogeneous time-resolved fluorescence (HTRF) assays were performed in black, half-area, flat bottom, 96-well microplates (Costar #3694). Human mitochondrial LysRS with a C-terminal HA-tag (mLysRS-HA), diluted in HTRF buffer (10 mM Tris-HCl pH 7.5, 50 mM NaCl, 10 mM 2-mercaptoethanol, BSA at 1 mg/ml) was added (20 μl at a dimer concentration of 3.75 nM) in the wells of microplates placed on ice. Compounds of formula I or II (1 μl of a 10 mM solution in DMSO) were then added to the wells, and mixing was achieved by pipetting up and down 3-times 10 μl. After centrifugation at 900 g for 1 min at 4° C., plates were placed at 4° C. on thermal modules of an epMotion 5075 v automated pipetting system (Eppendorf). A 10 μl sample of IN-H6 diluted in HTRF buffer at a dimer concentration of 250 nM was added and mixing was achieved by pipetting up and down 3-times 15 μl. Incubation was conducted at 4° C. for 1 h. A 10 μl aliquot of a mix of antibodies prepared in HTRF buffer, directed to the His-tag, conjugated with Eu3+ cryptate (Cisbio #61HISKLB, 0.125 μl per test, prepared as recommended by the supplier), and to the HA-tag, conjugated with XL665 (Cisbio #610HAXLB, 0.375 μl per test, prepared as recommended by the supplier), was added and mixing was achieved by pipetting up and down 3-times 15 μl. Incubation was conducted at 4° C. for 30 min.", "units": {"IC50": "µM"}, "values": [
      {"smiles": "COC(=O)C1=C(C)NC(C)=C(C(=O)OC2CCCN(Cc3ccccc3)C2)C1c1cccc([N+](=O)[O-])c1", "note": "(stereo unspecified) [US20230414632, Compound I-f]", "IC50": 450},
      {"smiles": "COC(=O)C1=C(C)NC(C)=C(C(=O)OC(C)(C)CN(C)CCC(c2ccccc2)c2ccccc2)C1c1cccc([N+](=O)[O-])c1", "note": "(stereo unspecified) [US20230414632, Compound I-c]", "IC50": 320},
      {"smiles": "COCCOC(=O)C1=C(C)NC(C)=C(C(=O)OC/C=C/c2ccccc2)C1c1cccc([N+](=O)[O-])c1", "note": "(stereo unspecified) [US20230414632, Compound I-b]", "IC50": 400},
      {"smiles": "CCOC(=O)C1=C(C)NC(C)=C(C(=O)OCC)C1c1ccccc1/C=C/C(=O)OC(C)(C)C", "note": "[US20230414632, Compound I-a]", "IC50": 65},
      {"smiles": "COC(=O)C1=C(C)NC(C)=C(C(=O)OCCN2CCN(C(c3ccccc3)c3ccccc3)CC2)C1c1cccc([N+](=O)[O-])c1", "note": "(stereo unspecified) [US20230414632, Compound I-g]", "IC50": 400},
      {"smiles": "COC(=O)C1=C(C)NC(C)=C(C(=O)OCC(C)C)C1c1ccccc1[N+](=O)[O-]", "note": "(stereo unspecified) [US20230414632, Compound I-e]", "IC50": 450}
    ]}
  ]
}
